Test results reported in ChEMBL document CHEMBL1131783, “Prodrugs of CL316243: a selective beta3-adrenergic receptor agonist for treating obesity and diabetes” (Bioorg Med Chem Lett, 1999).

Each compound was assayed against Beta-3 adrenergic receptor (Rattus norvegicus) (UniProt P26255) (assay: Beta-3-adrenergic activity measured by percent response against free fatty acid (FFA) in rat plasma at a dosage of 0.1 mg/kg).
Chain of Beta-3 adrenergic receptor (Rattus norvegicus) (P26255 whole entry): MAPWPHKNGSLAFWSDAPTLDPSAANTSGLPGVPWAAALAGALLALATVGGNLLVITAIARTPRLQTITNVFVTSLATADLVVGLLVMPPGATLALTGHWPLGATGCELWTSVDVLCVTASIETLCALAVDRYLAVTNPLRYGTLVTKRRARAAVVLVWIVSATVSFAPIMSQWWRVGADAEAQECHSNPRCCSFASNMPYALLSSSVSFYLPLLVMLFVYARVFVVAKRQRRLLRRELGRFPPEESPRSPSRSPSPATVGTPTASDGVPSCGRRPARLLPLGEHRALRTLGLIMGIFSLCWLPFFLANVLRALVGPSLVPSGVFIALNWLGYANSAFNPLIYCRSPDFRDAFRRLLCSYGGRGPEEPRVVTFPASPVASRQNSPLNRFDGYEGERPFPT
Assay type: functional, organism-based
Set-up: dose 0.1 mg/kg
Work on `C[C@H](Cc1ccc2c(c1)OC(C(=O)O)(C(=O)OCCC(C)(C)C)O2)NC[C@H](O)c1cccc(Cl)c1` (stereo not given in full) yielded a Response of 61%. `CC(C)C(=O)OCOC(=O)C1(C(=O)OCOC(=O)C(C)C)Oc2ccc(C[C@@H](C)NC[C@H](O)c3cccc(Cl)c3)cc2O1` was tested, and the Response was 26%. Compound `C[C@H](Cc1ccc2c(c1)OC(C(=O)O)(C(=O)OCCC1CC1)O2)NC[C@H](O)c1cccc(Cl)c1` (stereo not given in full) has a Response of 19%. Work on `CCCCOC(=O)C1(C(=O)OCCCC)Oc2ccc(C[C@@H](C)NC[C@H](O)c3cccc(Cl)c3)cc2O1` yielded a Response of 83%. Compound `C[C@H](Cc1ccc2c(c1)OC(C(=O)OCC1CC1)(C(=O)OCC1CC1)O2)NC[C@H](O)c1cccc(Cl)c1` has a Response of 99%. In the case of `CCCCCCOC(=O)C1(C(=O)O)Oc2ccc(C[C@@H](C)NC[C@H](O)c3cccc(Cl)c3)cc2O1` (stereo not given in full), the Response was 66%. Compound `C[C@H](Cc1ccc2c(c1)OC(C(=O)OCC1CCOC1)(C(=O)OCC1CCOC1)O2)NC[C@H](O)c1cccc(Cl)c1` (stereo not given in full) has a Response of 68%. For `C[C@H](Cc1ccc2c(c1)OC(C(=O)O)(C(=O)OC[Si](C)(C)C)O2)NC[C@H](O)c1cccc(Cl)c1` (stereo not given in full), the Response was 30%. Work on `C[C@H](Cc1ccc2c(c1)OC(C(=O)OCCCCCc1ccccc1)(C(=O)OCCCCCc1ccccc1)O2)NC[C@H](O)c1cccc(Cl)c1` yielded a Response of 93%. Compound `C[C@H](Cc1ccc2c(c1)OC(C(=O)OCC(=O)c1ccccc1)(C(=O)OCC(=O)c1ccccc1)O2)NC[C@H](O)c1cccc(Cl)c1` has a Response of 7%. `CCCCCCCCOC(=O)C1(C(=O)OCCCCCCCC)Oc2ccc(C[C@@H](C)NC[C@H](O)c3cccc(Cl)c3)cc2O1` was tested, and the Response was 46%. `CC(C)CCOC(=O)C1(C(=O)O)Oc2ccc(C[C@@H](C)NC[C@H](O)c3cccc(Cl)c3)cc2O1` (stereo not given in full) showed a Response of 42%. Work on `C[C@H](Cc1ccc2c(c1)OC(C(=O)OCC1CCCCO1)(C(=O)OCC1CCCCO1)O2)NC[C@H](O)c1cccc(Cl)c1` (stereo not given in full) yielded a Response of 11%. In the case of `C[C@H](Cc1ccc2c(c1)OC(C(=O)OCCc1cccc(C(F)(F)F)c1)(C(=O)OCCc1cccc(C(F)(F)F)c1)O2)NC[C@H](O)c1cccc(Cl)c1`, the Response was 28%. For `C[C@H](Cc1ccc2c(c1)OC(C(=O)OCC1CCCO1)(C(=O)OCC1CCCO1)O2)NC[C@H](O)c1cccc(Cl)c1` (stereo not given in full), the Response was 24%. Work on `C[C@H](Cc1ccc2c(c1)OC(C(=O)O)(C(=O)OCCOC(C)(C)C)O2)NC[C@H](O)c1cccc(Cl)c1` (stereo not given in full) yielded a Response of 20%. Work on `CCOC(=O)COC(=O)C1(C(=O)OCC(=O)OCC)Oc2ccc(C[C@@H](C)NC[C@H](O)c3cccc(Cl)c3)cc2O1` yielded a Response of 22%. Work on `COCCOC(=O)C1(C(=O)OCCOC)Oc2ccc(C[C@@H](C)NC[C@H](O)c3cccc(Cl)c3)cc2O1` yielded a Response of 65%. In the case of `CCCCCCOC(=O)C1(C(=O)OCCCCCC)Oc2ccc(C[C@@H](C)NC[C@H](O)c3cccc(Cl)c3)cc2O1`, the Response was 51%. `C[C@H](Cc1ccc2c(c1)OC(C(=O)OCCc1cccc(Br)c1)(C(=O)OCCc1cccc(Br)c1)O2)NC[C@H](O)c1cccc(Cl)c1` was tested, and the Response was 71%. `CCC(=O)OC(C)OC(=O)C1(C(=O)OC(C)OC(=O)CC)Oc2ccc(C[C@@H](C)NC[C@H](O)c3cccc(Cl)c3)cc2O1` (stereo not given in full) gave a Response of 2%. For `CCOCCOC(=O)C1(C(=O)OCCOCC)Oc2ccc(C[C@@H](C)NC[C@H](O)c3cccc(Cl)c3)cc2O1`, the Response was 101%. For `C[C@H](Cc1ccc2c(c1)OC(C(=O)OCCOC(C)(C)C)(C(=O)OCCOC(C)(C)C)O2)NC[C@H](O)c1cccc(Cl)c1`, the Response was 14%. Work on `C[C@H](Cc1ccc2c(c1)OC(C(=O)OCCCOCc1ccccc1)(C(=O)OCCCOCc1ccccc1)O2)NC[C@H](O)c1cccc(Cl)c1` yielded a Response of 83%. With `CC(C)COCCOC(=O)C1(C(=O)OCCOCC(C)C)Oc2ccc(C[C@@H](C)NC[C@H](O)c3cccc(Cl)c3)cc2O1` the Response was 63%. In the case of `CC(=O)OCOC(=O)C1(C(=O)OCOC(C)=O)Oc2ccc(C[C@@H](C)NC[C@H](O)c3cccc(Cl)c3)cc2O1`, the Response was 39%. For `C[C@H](Cc1ccc2c(c1)OC(C(=O)OCCOc1cccc(Cl)c1)(C(=O)OCCOc1cccc(Cl)c1)O2)NC[C@H](O)c1cccc(Cl)c1`, the Response was 88%. `C[C@H](Cc1ccc2c(c1)OC(C(=O)OC1CCCCC1)(C(=O)OC1CCCCC1)O2)NC[C@H](O)c1cccc(Cl)c1` gave a Response of 59%. `CCC(CC)OC(=O)C1(C(=O)OC(CC)CC)Oc2ccc(C[C@@H](C)NC[C@H](O)c3cccc(Cl)c3)cc2O1` gave a Response of 63%. `COCCOC(=O)C1(C(=O)O)Oc2ccc(C[C@@H](C)NC[C@H](O)c3cccc(Cl)c3)cc2O1` (stereo not given in full) gave a Response of 85%. Work on `CCC(CC)OC(=O)C1(C(=O)O)Oc2ccc(C[C@@H](C)NC[C@H](O)c3cccc(Cl)c3)cc2O1` (stereo not given in full) yielded a Response of 52%. Compound `CCCCOCCOC(=O)C1(C(=O)O)Oc2ccc(C[C@@H](C)NC[C@H](O)c3cccc(Cl)c3)cc2O1` (stereo not given in full) has a Response of 83%. For `C[C@H](Cc1ccc2c(c1)OC(C(=O)O)(C(=O)OCC[Si](C)(C)C)O2)NC[C@H](O)c1cccc(Cl)c1` (stereo not given in full), the Response was 30%. Compound `C[C@H](Cc1ccc2c(c1)OC(C(=O)OCC(C)(C)CO)(C(=O)OCC(C)(C)CO)O2)NC[C@H](O)c1cccc(Cl)c1` has a Response of 78%. `C[C@H](Cc1ccc2c(c1)OC(C(=O)OCC(C)(C)Cc1ccccc1)(C(=O)OCC(C)(C)Cc1ccccc1)O2)NC[C@H](O)c1cccc(Cl)c1` gave a Response of 25%. Compound `C[C@H](Cc1ccc2c(c1)OC(C(=O)OCc1ccccc1)(C(=O)OCc1ccccc1)O2)NC[C@H](O)c1cccc(Cl)c1` has a Response of 21%. `CC(C)OCCOC(=O)C1(C(=O)OCCOC(C)C)Oc2ccc(C[C@@H](C)NC[C@H](O)c3cccc(Cl)c3)cc2O1` showed a Response of 86%. Compound `COc1ccc(COC(=O)C2(C(=O)OCc3ccc(OC)cc3)Oc3ccc(C[C@@H](C)NC[C@H](O)c4cccc(Cl)c4)cc3O2)cc1` has a Response of 8%. `CCC(CC)COC(=O)C1(C(=O)O)Oc2ccc(C[C@@H](C)NC[C@H](O)c3cccc(Cl)c3)cc2O1` (stereo not given in full) gave a Response of 56%. In the case of `C[C@H](Cc1ccc2c(c1)OC(C(=O)OCCC1CC1)(C(=O)OCCC1CC1)O2)NC[C@H](O)c1cccc(Cl)c1`, the Response was 77%. For `C[C@H](Cc1ccc2c(c1)OC(C(=O)OCc1cccc(Cl)c1)(C(=O)OCc1cccc(Cl)c1)O2)NC[C@H](O)c1cccc(Cl)c1`, the Response was 46%. With `CC(OC(=O)C1(C(=O)OC(C)c2ccccc2)Oc2ccc(C[C@@H](C)NC[C@H](O)c3cccc(Cl)c3)cc2O1)c1ccccc1` (stereo not given in full) the Response was 78%. `Cc1cccc(CCOC(=O)C2(C(=O)OCCc3cccc(C)c3)Oc3ccc(C[C@@H](C)NC[C@H](O)c4cccc(Cl)c4)cc3O2)c1` was tested, and the Response was 39%. Work on `C[C@H](Cc1ccc2c(c1)OC(C(=O)OCC1CCCCC1)(C(=O)OCC1CCCCC1)O2)NC[C@H](O)c1cccc(Cl)c1` yielded a Response of 22%. `C[C@H](Cc1ccc2c(c1)OC(C(=O)OCOC(=O)c1ccccc1)(C(=O)OCOC(=O)c1ccccc1)O2)NC[C@H](O)c1cccc(Cl)c1` was tested, and the Response was 31%. Work on `C[C@H](Cc1ccc2c(c1)OC(C(=O)OC/C=C/c1ccccc1)(C(=O)OC/C=C/c1ccccc1)O2)NC[C@H](O)c1cccc(Cl)c1` yielded a Response of 58%. Compound `CCCC(=O)OCOC(=O)C1(C(=O)OCOC(=O)CCC)Oc2ccc(C[C@@H](C)NC[C@H](O)c3cccc(Cl)c3)cc2O1` has a Response of 24%. `C[C@H](Cc1ccc2c(c1)OC(C(=O)OC[Si](C)(C)C)(C(=O)OC[Si](C)(C)C)O2)NC[C@H](O)c1cccc(Cl)c1` gave a Response of 73%. Compound `CCCCCCC(=O)OCOC(=O)C1(C(=O)OCOC(=O)CCCCCC)Oc2ccc(C[C@@H](C)NC[C@H](O)c3cccc(Cl)c3)cc2O1` has a Response of 23%. With `C=CCOC(=O)C1(C(=O)OCC=C)Oc2ccc(C[C@@H](C)NC[C@H](O)c3cccc(Cl)c3)cc2O1` the Response was 86%.
